# According to article PMC6264549, “Synthesis and Biological Evaluation of 3-Substituted-indolin-2-one Derivatives Containing Chloropyrrole Moieties” (Molecules, 2011):
# Experiments:
# [1] = system: non-small cell lung cancer (A549); experiment: MTT cell growth inhibition assay, A549; assay type: cell-based; details: Homo sapiens, 48 h, A549 cells, two days, read-out: IC50 ± SD A549
# Protocol: (§1) The antitumor activities of 14a-r were evaluated in vitro on four tumor cell lines, including non-small cell lung cancer (A549), oral epithelial (KB), melanoma (K111) and large cell lung cancer cell lines (NCI-H460) by the MTT assay, and the results are summarized in Table 1.
# (§2) Non-small cell lung cancer (A549), oral epithelial (KB), large cell lung cancer (NCI-H460) and melanoma cell lines (K111) were cultured in Dulbecco’s modified Eagle medium (GIBCO) containing 10% (v/v) inactivated newborn calf serum (Boren Bio-Pharmaceutical Co., Ltd.: Guangzhou, China), […] L-glutamine (SANGON), […] penicillin, 100 µg/mL streptomycin. Cells were grown in a 5% CO2 incubator at 37 °C.
# (§3) The antitumor activities were determined by the MTT assay. Cells (2 × 10^3 cells/well) were seeded in 96-well plates. After incubation overnight, each compound, which was dissolved in dimethylsulfoxide (DMSO) and diluted with phosphate buffer solution (PBS), was added to each well and the cells were cultured for another two days at 37 °C. 20 μL (5 mg/mL) MTT solution was added to per well and the culture continued for another 3–4 h. The medium was removed and 100 μL DMSO was added to dissolve formazan crystals. Absorbance was measured at 492 nm using an ELISA reader (Thermo). The antitumor activities were expressed as IC50.
# [2] = system: oral epithelial (KB); experiment: MTT cell growth inhibition assay, KB; assay type: cell-based; details: Homo sapiens, 48 h, KB cells, two days
# Protocol: as §1, §2, §3
# [3] = system: melanoma (K111); experiment: MTT cell growth inhibition assay, K111; assay type: cell-based; details: 48 h, K111 cells, two days, read-out: IC50 ± SD K111
# Protocol: as §1, §2, §3
# [4] = system: large cell lung cancer cell lines (NCI-H460); experiment: MTT cell growth inhibition assay, NCI-H460; assay type: cell-based; details: Homo sapiens, 48 h, NCI-H460 cells, two days, read-out: IC50 ± SD NCI-H460
# Protocol: as §1, §2, §3
# [5] = target: VEGFR2 tyrosine kinase (Homo sapiens, UniProt P35968); experiment: VEGFR2 inhibition assay (ELISA); assay type: biochemical; details: 5.0 µM ATP, Poly (Glu, Tyr)4:1 substrate, read-out: IC50 ± SD VEGFR2
# Sequence of VEGFR2 tyrosine kinase (P35968 20-1356): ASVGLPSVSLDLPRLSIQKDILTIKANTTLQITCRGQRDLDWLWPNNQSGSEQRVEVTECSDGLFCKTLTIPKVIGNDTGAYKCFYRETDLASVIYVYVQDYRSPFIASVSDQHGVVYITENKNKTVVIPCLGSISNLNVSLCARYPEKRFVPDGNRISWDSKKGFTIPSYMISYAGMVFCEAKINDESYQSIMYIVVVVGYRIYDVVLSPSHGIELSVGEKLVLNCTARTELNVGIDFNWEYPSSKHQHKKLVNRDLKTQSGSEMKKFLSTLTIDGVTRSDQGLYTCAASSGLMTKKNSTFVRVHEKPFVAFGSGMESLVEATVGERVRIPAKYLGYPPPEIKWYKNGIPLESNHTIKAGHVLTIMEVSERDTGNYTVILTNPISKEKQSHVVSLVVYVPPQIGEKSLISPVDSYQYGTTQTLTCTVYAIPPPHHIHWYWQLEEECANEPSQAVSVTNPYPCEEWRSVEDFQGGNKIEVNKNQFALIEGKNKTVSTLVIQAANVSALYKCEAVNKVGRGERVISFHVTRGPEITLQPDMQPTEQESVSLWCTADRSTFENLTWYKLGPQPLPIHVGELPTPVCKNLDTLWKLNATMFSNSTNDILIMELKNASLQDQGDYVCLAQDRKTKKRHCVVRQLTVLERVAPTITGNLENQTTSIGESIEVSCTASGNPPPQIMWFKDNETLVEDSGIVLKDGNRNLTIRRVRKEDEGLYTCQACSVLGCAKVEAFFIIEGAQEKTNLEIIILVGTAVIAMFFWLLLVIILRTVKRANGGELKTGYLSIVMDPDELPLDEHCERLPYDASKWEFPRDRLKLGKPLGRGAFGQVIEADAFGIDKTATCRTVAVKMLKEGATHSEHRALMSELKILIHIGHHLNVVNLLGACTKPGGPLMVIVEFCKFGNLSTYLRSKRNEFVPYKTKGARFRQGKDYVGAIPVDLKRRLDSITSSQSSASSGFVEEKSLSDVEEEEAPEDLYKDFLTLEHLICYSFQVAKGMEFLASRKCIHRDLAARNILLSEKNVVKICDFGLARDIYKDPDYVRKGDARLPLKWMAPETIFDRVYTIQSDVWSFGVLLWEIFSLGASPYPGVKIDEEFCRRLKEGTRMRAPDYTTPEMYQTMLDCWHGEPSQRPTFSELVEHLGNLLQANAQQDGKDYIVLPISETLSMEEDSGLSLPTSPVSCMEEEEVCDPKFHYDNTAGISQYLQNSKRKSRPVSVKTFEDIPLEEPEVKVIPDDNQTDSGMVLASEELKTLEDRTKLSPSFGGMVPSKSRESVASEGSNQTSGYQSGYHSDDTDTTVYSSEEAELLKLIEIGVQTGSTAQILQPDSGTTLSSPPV
# Protocol: Seven compounds in the 14a–r series with low IC50 values on the tumor cell lines were evaluated for their inhibition of VEGFR2 using an enzyme-linked immunosorbent assay (ELISA), and the data are summarized in Table 2.
# The VEGFR2 inhibition assay was performed by enzyme-linked immunosorbent assay (ELISA) in 96-well plates pre-coated with 2.5 µg/well Poly (Glu, Tyr)4:1 as a substrate. Each well was treated with 90 µL of 5.0 µM ATP (Amresco) solution and 10 µL of one of the seven compounds at varying concentrations, which were diluted in reaction buffer (50 mM HEPES pH 7.4, 20 mM MgCl2, 0.1 mM Na3VO4, 1 mM DTT). […] The reaction was initiated by adding 1 µL/well of VEGFR2 tyrosine kinase. After incubation for 1 h at 37 °C, the plates were washed three times with phosphate buffered saline containing 0.1% Tween-20 (T-PBS). Next, anti-phosphotyrosine (PY99; 1:1,000 dilution, 100 μL/well) antibody was added. After 1 h incubation at room temperature, the plates were washed three times, and goat anti-mouse IgG horseradish peroxidase (100 μL/well of 1:2,000 dilution) diluted in T-PBS was added. The plates were reincubated at room temperature for 1 h, and washed as before. Finally, color development solution (0.03% H2O2 and 2 mg/mL o-phenylenediamine in 0.1 M citrate buffer, pH 5.5, 100 µL/well) was added and the plates were incubated at room temperature until color emerged. The reaction was terminated by the addition of 2 M H2SO4 (50 µL/well), and A492 was measured using a tunable wavelength microplate reader (Molecular Devices SPECTRAMAX190). The inhibition rate was calculated using the equation: [1 − (A492/A492 control)] × 100%.
# [6] = target: hERG potassium currents (Homo sapiens, UniProt Q12809); experiment: Inhibition of hERG potassium currents in HEK239 cells (cardiotoxicity)
# Sequence of hERG potassium currents (Q12809 whole entry): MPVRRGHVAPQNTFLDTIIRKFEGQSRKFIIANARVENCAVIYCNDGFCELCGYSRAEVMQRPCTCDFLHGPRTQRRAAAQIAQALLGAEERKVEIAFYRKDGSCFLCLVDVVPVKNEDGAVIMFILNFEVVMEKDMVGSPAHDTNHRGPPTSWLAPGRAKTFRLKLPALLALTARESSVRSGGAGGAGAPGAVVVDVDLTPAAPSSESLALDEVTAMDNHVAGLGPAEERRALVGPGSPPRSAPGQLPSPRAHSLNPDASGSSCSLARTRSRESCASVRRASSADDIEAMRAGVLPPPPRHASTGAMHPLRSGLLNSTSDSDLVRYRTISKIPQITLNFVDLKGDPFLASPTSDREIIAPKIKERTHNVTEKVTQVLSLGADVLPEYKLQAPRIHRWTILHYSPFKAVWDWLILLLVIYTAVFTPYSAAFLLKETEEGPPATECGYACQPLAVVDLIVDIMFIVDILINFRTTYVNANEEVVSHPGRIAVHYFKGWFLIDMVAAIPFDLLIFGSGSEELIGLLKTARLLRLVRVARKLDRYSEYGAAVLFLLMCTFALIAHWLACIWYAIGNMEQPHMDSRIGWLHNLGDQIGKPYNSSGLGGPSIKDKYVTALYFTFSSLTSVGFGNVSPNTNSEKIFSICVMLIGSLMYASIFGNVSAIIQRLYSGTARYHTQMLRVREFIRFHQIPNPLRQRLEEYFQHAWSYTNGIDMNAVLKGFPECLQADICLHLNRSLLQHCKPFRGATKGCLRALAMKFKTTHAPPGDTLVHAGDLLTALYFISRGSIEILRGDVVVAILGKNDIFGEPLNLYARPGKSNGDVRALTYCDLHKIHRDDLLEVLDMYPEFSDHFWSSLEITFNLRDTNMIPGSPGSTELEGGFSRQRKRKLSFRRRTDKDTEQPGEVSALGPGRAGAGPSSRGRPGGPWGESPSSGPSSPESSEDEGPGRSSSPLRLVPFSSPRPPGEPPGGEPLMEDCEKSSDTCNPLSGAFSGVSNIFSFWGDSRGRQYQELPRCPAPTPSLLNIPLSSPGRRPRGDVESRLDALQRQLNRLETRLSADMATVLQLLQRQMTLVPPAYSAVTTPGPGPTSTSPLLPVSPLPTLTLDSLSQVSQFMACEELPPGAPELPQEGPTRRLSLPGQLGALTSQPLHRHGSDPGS
Structure (SMILES),IC50 [1],IC50 [2],IC50 [3],IC50 [4],melting point,IC50 [5],IC50 [6]
"Cc1[nH]c(/C=C2\C(=O)Nc3ccc(F)cc32)c(Cl)c1C(=O)N1CCN(C)CC1 [Compound 14b, (Z)-3-((3-Chloro-5-methyl-4-(4-methylpiperazine-1-carbonyl)-1H-pyrrol-2-yl)methylene)-5-fluoroindolin-2-one]",> 100 µM,> 100 µM,> 100 µM,> 100 µM,276.7 to 278.5 °C,,
"CCCNC(=O)c1c(C)[nH]c(/C=C2\C(=O)Nc3ccc(F)cc32)c1Cl [Compound 14d, (Z)-4-Chloro-5-((5-fluoro-2-oxoindolin-3-ylidene)methyl)-2-methyl-N-propyl-1H-pyrrole-3-carboxamide]",> 100 µM,> 100 µM,> 100 µM,> 100 µM,> 290 °C,,
"CCN(CC)CCNC(=O)c1c(Cl)[nH]c(/C=C2\C(=O)Nc3ccc(Br)cc32)c1C [Compound 14j, (Z)-5-((5-bromo-2-oxoindolin-3-ylidene)methyl)-2-chloro-N-(2-(diethylamino)ethyl)-4-methyl-1H-pyrrole-3-carboxamide]",> 100 µM,34.2 ± 2.96 µM,> 100 µM,> 100 µM,248.1 to 248.5 °C,,
"CCN(CC)CCNC(=O)c1c(C)[nH]c(/C=C2\C(=O)Nc3ccccc32)c1Cl [Compound 14k, (Z)-4-Chloro-N-(2-(diethylamino)ethyl)-2-methyl-5-((2-oxoindolin-3-ylidene)methyl)-1H-pyrrole-3-carboxamide]",> 100 µM,5.09 ± 1.01 µM,> 100 µM,> 100 µM,238.5 to 240.1 °C,,
"CCN(CC)CCNC(=O)c1c(C)[nH]c(/C=C2\C(=O)Nc3ccc(C)cc32)c1Cl [Compound 14l, (Z)-4-Chloro-N-(2-(diethylamino)ethyl)-2-methyl-5-((5-methyl-2-oxoindolin-3-ylidene)methyl)-1H-pyrrole-3-carboxamide]",> 100 µM,64.4 ± 7.51 µM,> 100 µM,> 100 µM,238.2 to 240 °C,,
"CCN(CC)CCNC(=O)c1c(Cl)[nH]c(/C=C2\C(=O)Nc3ccc(F)cc32)c1Cl [Compound 14m, (Z)-2,4-Dichloro-N-(2-(diethylamino)ethyl)-5-((5-fluoro-2-oxoindolin-3-ylidene)methyl)-1H-pyrrole-3-carboxamide]",> 100 µM,> 100 µM,> 100 µM,> 100 µM,269.1 to 270.3 °C,,
"CCc1c(/C=C2\C(=O)Nc3ccc(F)cc32)[nH]c(Cl)c1C(=O)NCCN(CC)CC [Compound 14q, (Z)-2-Chloro-N-(2-(diethylamino)ethyl)-4-ethyl-5-((5-fluoro-2-oxoindolin-3-ylidene)methyl)-1H-pyrrole-3-carboxamide]",16.7 ± 2.7 µM,34.4 ± 2.9 µM,> 100 µM,> 100 µM,245.2 to 246.8 °C,,

# The next compounds have a lower IC50 [1] than those just listed; values first:
IC50 [1],IC50 [2],IC50 [3],IC50 [4],melting point,IC50 [5],Structure (SMILES),IC50 [6]
1.47 ± 0.13 µM,52.9 ± 7.93 µM,> 100 µM,> 100 µM,268.5 to 269.7 °C,,"Cc1[nH]c(/C=C2\C(=O)Nc3ccc(F)cc32)c(Cl)c1C(=O)NCCN1CCOCC1 [Compound 14a, (Z)-4-Chloro-5-((5-fluoro-2-oxoindolin-3-ylidene)methyl)-2-methyl-N-(2-morpholinoethyl)-1H-pyrrole-3-carboxamide]",
2.43 ± 0.26 µM,1.35 ± 0.12 µM,3.41 ± 0.52 µM,1.41 ± 0.17 µM,230.5 to 232 °C,0.0068 ± 0.0018 µM,"Cc1[nH]c(/C=C2\C(=O)Nc3ccc(F)cc32)c(Cl)c1C(=O)NC1CNC1 [Compound 14c, (Z)-N-(azetidin-3-yl)-4-chloro-5-((5-fluoro-2-oxoindolin-3-ylidene)methyl)-2-methyl-1H-pyrrole-3-carboxamide]",
2.33 ± 0.31 µM,2.88 ± 0.33 µM,> 100 µM,> 100 µM,235.1 to 237.3 °C,,"Cc1[nH]c(/C=C2\C(=O)Nc3ccc(F)cc32)c(Cl)c1C(=O)NCCCN(C)C [Compound 14e, (Z)-4-Chloro-N-(3-(dimethylamino)propyl)-5-((5-fluoro-2-oxoindolin-3-ylidene)methyl)-2-methyl-1H-pyrrole-3-carboxamide]",
1.69 ± 0.17 µM,1.56 ± 0.08 µM,1.35 ± 0.28 µM,1.67 ± 0.18 µM,271.8 to 274.2 °C,0.0062 ± 0.0008 µM,"Cc1[nH]c(/C=C2\C(=O)Nc3ccc(F)cc32)c(Cl)c1C(=O)NCCN(C)C [Compound 14f, (Z)-4-Chloro-N-(2-(dimethylamino)ethyl)-5-((5-fluoro-2-oxoindolin-3-ylidene)methyl)-2-methyl-1H-pyrrole-3-carboxamide]",
1.03 ± 0.09 µM,0.67 ± 0.08 µM,1.19 ± 0.21 µM,1.41 ± 0.09 µM,211 to 211.8 °C,0.005 ± 0.0011 µM,"CCNCCNC(=O)c1c(C)[nH]c(/C=C2\C(=O)Nc3ccc(F)cc32)c1Cl [Compound 14g, (Z)-4-Chloro-N-(2-(ethylamino)ethyl)-5-((5-fluoro-2-oxoindolin-3-ylidene)methyl)-2-methyl-1H-pyrrole-3-carboxamide]",0.43 µM
0.32 ± 0.03 µM,1.15 ± 0.2 µM,> 100 µM,> 100 µM,246 to 247 °C,0.0112 ± 0.0026 µM,"CCN(CC)CCNC(=O)c1c(C)[nH]c(/C=C2\C(=O)Nc3ccc(Cl)cc32)c1Cl [Compound 14i, (Z)-4-Chloro-5-((5-chloro-2-oxoindolin-3-ylidene)methyl)-N-(2-(diethylamino)ethyl)-2-methyl-1H-pyrrole-3-carboxamide]",
3.37 ± 0.27 µM,4.23 ± 0.65 µM,> 100 µM,> 100 µM,233.5 to 234.7 °C,,"CCN(CC)CCNC(=O)c1cc(/C=C2\C(=O)Nc3ccc(F)cc32)[nH]c1Cl [Compound 14n, (Z)-2-Chloro-N-(2-(diethylamino)ethyl)-5-((5-fluoro-2-oxoindolin-3-ylidene)methyl)-1H-pyrrole-3-carboxamide]",
2.14 ± 0.26 µM,1.51 ± 0.11 µM,> 100 µM,> 100 µM,243.4 to 244 °C,,"CCN(CC)CCNC(=O)c1c(Cl)[nH]c(/C=C2\C(=O)Nc3ccc(F)cc32)c1C [Compound 14o, (Z)-2-Chloro-N-(2-(diethylamino)ethyl)-5-((5-fluoro-2-oxoindolin-3-ylidene)methyl)-4-methyl-1H-pyrrole-3-carboxamide]",
1.41 ± 0.09 µM,0.69 ± 0.07 µM,1.24 ± 0.16 µM,1.66 ± 0.23 µM,215 to 216.8 °C,0.006 ± 0.0012 µM,"CCNCCNC(=O)c1c(Cl)[nH]c(/C=C2\C(=O)Nc3ccc(F)cc32)c1C [Compound 14p, (Z)-2-Chloro-N-(2-(ethylamino)ethyl)-5-((5-fluoro-2-oxoindolin-3-ylidene)methyl)-4-methyl-1H-pyrrole-3-carboxamide]",
1.49 ± 0.11 µM,1.43 ± 0.21 µM,3.72 ± 0.46 µM,1.22 ± 0.1 µM,232 to 233.1 °C,0.0087 ± 0.0013 µM,"CCNCCNC(=O)c1c(Cl)[nH]c(/C=C2\C(=O)Nc3ccc(F)cc32)c1CC [Compound 14r, (Z)-2-Chloro-4-ethyl-N-(2-(ethylamino)ethyl)-5-((5-fluoro-2-oxoindolin-3-ylidene)methyl)-1H-pyrrole-3-carboxamide]",
